Tests used:
Experiment in all cases: Eurofins kinase selectivity profile against 380 other human recombinant kinases (Table S2)
Format in all cases: biochemical
[1] = target: T1, 380 human recombinant protein kinases (Homo sapiens, UniProt Q16584); conditions: MLK3(h), read-out: Inhibition rate
T1 construct: purchased Eurofins (Celle Lévescault)
Outline: (§1)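 Values come from a contract kinase-profiling service that tested the compound at multiple concentrations across 380 recombinant human kinases, as an off-target check against the MK2 activity.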

[2] = target: T2, 380 human recombinant protein kinases (Homo sapiens, UniProt P49760); conditions: CLK2(h), read-out: Inhibition rate
T2 construct: purchased Eurofins (Celle Lévescault)
Outline: as §1

[3] = target: T3, 380 human recombinant protein kinases (Homo sapiens, UniProt P51617); conditions: IRAK1(h), read-out: Inhibition rate
T3 construct: purchased Eurofins (Celle Lévescault)
Outline: as §1

[4] = target: T4, 380 human recombinant protein kinases (Homo sapiens, UniProt P46734); conditions: MKK3(h), read-out: Inhibition rate
T4 construct: purchased Eurofins (Celle Lévescault)
T4 sequence (P46734 1-347): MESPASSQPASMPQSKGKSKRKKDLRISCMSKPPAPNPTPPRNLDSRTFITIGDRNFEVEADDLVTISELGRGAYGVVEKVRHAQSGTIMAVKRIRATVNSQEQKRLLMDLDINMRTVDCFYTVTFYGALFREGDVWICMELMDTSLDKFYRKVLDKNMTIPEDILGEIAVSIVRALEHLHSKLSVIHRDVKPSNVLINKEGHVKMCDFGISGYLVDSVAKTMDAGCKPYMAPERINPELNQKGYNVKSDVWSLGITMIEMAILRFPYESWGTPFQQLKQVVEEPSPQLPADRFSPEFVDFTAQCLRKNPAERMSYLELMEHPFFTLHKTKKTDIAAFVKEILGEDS
Outline: as §1

[5] = target: T5, 380 human recombinant protein kinases (Homo sapiens, UniProt P43405); conditions: Syk(h), read-out: Inhibition rate (%)
T5 construct: purchased Eurofins (Celle Lévescault)
Outline: as §1

[6] = target: T6, 380 human recombinant protein kinases (Homo sapiens, UniProt P00519); conditions: Abl(h), read-out: Inhibition rate
T6 construct: purchased Eurofins (Celle Lévescault)
Outline: as §1

[7] = target: T7, 380 human recombinant protein kinases (Homo sapiens, UniProt P17948); conditions: Flt1(h), read-out: Inhibition rate
T7 construct: purchased Eurofins (Celle Lévescault)
Outline: as §1

[8] = target: T8, 380 human recombinant protein kinases (Homo sapiens, UniProt P36896); conditions: ALK4(h), read-out: Inhibition rate
T8 construct: purchased Eurofins (Celle Lévescault)
T8 sequence (P36896 24-505): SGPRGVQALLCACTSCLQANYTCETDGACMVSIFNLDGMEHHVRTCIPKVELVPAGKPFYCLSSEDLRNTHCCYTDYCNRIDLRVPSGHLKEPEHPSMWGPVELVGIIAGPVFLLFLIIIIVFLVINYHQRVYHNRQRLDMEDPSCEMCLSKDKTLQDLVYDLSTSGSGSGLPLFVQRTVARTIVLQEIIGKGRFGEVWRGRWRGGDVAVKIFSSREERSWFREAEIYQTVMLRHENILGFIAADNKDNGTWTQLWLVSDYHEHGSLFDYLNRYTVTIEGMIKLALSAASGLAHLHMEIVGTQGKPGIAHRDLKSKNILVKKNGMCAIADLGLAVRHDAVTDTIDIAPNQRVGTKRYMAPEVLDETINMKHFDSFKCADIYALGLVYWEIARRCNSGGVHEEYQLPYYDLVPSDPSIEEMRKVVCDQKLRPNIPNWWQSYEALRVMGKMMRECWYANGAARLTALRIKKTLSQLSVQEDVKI
Outline: as §1

[9] = target: T9, 380 human recombinant protein kinases (Homo sapiens, UniProt Q9H2X6); conditions: HIPK2(h), read-out: Inhibition rate
T9 construct: purchased Eurofins (Celle Lévescault)
Outline: as §1

[10] = target: T10, 380 human recombinant protein kinases (Homo sapiens, UniProt P27448); conditions: MARK3(h), read-out: Inhibition rate
T10 construct: purchased Eurofins (Celle Lévescault)
Outline: as §1

[11] = target: T11, 380 human recombinant protein kinases (Homo sapiens, UniProt P51817); conditions: PrKX(h), read-out: Inhibition rate
T11 construct: purchased Eurofins (Celle Lévescault)
T11 sequence (P51817 1-358): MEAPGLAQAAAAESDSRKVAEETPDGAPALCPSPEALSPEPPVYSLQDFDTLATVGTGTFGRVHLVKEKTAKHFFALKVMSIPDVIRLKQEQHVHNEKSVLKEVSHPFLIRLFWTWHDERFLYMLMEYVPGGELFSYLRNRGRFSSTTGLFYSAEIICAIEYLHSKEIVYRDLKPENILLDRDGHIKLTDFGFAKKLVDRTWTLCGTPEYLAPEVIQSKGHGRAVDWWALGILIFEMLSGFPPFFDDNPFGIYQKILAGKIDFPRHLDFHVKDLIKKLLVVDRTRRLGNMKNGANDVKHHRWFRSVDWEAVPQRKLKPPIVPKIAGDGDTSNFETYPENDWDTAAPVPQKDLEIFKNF
Outline: as §1

[12] = target: T12, 380 human recombinant protein kinases (Homo sapiens, UniProt Q02779); conditions: MLK2(h), read-out: Inhibition rate
T12 construct: purchased Eurofins (Celle Lévescault)
Outline: as §1

T9 sequence (Q9H2X6 whole entry): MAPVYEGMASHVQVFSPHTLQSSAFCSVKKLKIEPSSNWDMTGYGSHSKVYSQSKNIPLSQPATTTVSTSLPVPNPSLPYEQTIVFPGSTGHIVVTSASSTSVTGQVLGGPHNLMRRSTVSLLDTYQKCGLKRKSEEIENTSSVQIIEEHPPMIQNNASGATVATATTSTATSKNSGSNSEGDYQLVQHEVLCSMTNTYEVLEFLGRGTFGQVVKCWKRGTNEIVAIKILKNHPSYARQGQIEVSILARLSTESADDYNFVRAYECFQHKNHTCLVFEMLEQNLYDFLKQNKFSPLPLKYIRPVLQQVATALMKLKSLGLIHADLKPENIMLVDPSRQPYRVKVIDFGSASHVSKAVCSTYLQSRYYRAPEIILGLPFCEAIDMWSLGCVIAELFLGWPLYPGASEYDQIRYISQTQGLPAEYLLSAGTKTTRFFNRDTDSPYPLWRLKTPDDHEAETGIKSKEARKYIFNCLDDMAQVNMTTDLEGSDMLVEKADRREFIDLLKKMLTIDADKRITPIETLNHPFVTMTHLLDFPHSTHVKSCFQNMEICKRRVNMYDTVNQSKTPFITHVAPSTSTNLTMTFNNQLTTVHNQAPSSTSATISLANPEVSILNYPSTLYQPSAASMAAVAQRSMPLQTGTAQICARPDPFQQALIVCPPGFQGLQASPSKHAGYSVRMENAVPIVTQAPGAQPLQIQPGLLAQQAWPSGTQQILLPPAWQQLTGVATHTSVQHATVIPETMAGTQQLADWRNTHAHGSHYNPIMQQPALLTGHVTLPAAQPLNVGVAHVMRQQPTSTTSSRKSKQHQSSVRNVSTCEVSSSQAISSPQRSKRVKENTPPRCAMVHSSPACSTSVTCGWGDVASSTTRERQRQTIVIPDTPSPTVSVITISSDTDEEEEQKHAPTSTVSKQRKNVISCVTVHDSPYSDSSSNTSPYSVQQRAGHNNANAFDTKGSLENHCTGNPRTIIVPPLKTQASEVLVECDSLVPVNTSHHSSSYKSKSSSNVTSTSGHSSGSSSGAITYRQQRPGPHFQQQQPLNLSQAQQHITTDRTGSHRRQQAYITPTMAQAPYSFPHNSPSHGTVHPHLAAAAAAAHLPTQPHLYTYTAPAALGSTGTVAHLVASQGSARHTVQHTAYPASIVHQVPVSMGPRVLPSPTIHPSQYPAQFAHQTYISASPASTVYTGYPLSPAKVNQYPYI
T7 sequence (P17948 27-1338): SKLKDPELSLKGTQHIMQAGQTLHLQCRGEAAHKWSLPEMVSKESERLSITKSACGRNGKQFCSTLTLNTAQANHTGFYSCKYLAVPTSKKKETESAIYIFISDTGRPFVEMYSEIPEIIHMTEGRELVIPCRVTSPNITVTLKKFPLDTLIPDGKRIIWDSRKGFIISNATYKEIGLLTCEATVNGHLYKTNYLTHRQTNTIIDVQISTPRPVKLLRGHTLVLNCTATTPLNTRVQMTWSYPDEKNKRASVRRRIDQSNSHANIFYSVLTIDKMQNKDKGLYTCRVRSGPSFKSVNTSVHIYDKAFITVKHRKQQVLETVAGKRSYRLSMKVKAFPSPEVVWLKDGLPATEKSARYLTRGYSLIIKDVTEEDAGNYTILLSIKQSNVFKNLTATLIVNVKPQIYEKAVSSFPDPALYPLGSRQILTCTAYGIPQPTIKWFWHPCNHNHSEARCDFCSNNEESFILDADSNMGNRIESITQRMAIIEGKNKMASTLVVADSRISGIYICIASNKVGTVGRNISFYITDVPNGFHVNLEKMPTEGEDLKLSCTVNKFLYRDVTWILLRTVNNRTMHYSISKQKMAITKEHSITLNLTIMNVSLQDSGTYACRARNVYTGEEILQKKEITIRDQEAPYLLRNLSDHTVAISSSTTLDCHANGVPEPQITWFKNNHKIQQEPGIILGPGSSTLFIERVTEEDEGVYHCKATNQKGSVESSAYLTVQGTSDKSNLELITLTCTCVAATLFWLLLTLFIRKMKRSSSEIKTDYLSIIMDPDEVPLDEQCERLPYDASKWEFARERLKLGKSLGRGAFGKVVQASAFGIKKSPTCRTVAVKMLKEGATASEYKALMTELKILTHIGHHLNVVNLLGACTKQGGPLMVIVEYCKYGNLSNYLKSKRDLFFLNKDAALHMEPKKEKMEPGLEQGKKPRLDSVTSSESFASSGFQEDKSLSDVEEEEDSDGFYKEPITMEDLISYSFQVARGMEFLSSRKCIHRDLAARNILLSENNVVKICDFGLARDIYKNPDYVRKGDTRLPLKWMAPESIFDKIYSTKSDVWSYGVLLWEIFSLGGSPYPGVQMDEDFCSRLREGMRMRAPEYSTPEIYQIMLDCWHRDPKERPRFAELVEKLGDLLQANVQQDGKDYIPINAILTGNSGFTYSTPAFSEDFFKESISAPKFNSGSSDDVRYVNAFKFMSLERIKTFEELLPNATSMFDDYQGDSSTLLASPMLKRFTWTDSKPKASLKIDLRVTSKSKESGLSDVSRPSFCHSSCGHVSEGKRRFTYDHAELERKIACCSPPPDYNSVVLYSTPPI
T3 sequence (P51617 whole entry): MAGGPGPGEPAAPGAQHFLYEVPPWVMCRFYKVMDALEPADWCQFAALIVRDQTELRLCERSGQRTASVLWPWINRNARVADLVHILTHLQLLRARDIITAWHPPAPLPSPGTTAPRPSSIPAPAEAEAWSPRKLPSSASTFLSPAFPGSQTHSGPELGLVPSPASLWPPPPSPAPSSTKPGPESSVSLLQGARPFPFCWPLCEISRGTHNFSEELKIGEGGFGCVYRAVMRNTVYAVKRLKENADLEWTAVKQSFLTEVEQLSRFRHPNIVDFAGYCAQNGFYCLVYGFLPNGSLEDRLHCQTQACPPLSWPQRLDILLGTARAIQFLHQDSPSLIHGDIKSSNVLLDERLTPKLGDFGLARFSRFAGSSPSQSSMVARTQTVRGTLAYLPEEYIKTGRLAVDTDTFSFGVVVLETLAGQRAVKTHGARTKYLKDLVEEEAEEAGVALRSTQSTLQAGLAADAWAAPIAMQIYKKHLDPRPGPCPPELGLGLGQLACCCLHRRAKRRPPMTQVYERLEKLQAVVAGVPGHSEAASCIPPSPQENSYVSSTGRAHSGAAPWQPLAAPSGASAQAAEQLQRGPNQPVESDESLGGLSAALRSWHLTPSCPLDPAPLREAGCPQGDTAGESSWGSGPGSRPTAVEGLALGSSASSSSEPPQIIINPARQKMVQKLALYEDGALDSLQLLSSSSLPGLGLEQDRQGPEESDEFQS
T2 sequence (P49760 whole entry): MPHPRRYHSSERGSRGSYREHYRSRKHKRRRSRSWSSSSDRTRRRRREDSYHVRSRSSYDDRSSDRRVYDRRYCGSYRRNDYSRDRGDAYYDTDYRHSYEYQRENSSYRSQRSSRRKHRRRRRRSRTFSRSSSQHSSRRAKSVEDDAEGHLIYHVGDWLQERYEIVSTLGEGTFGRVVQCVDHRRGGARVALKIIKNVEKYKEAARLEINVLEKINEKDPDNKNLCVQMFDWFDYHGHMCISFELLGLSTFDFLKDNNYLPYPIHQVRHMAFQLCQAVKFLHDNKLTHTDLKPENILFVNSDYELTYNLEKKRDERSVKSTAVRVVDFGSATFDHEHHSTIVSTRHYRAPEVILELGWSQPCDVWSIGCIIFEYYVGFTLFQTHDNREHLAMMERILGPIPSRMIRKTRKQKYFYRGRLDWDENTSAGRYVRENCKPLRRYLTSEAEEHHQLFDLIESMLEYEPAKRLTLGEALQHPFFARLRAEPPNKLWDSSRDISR
T1 sequence (Q16584 whole entry): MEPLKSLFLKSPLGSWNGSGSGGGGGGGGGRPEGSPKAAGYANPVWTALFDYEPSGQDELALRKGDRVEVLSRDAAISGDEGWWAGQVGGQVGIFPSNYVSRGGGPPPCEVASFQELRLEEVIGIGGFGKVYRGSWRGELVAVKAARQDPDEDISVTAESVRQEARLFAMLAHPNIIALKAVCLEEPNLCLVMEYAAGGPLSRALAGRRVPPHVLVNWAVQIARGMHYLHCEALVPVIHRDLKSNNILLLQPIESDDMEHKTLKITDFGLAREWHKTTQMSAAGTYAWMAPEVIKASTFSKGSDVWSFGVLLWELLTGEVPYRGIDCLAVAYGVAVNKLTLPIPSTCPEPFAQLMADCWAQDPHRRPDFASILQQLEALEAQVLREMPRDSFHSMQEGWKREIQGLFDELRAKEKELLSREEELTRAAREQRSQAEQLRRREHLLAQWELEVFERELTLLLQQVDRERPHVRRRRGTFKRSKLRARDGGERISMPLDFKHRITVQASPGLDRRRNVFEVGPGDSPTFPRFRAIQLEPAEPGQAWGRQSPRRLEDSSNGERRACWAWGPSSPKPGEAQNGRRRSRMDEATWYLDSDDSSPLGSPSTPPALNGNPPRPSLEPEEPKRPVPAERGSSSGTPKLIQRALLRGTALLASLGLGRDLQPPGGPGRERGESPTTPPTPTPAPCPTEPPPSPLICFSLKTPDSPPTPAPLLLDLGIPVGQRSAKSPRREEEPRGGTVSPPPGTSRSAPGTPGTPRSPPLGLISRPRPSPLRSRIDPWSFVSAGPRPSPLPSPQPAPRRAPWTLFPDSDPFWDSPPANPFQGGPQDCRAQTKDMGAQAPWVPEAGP

**Q.** Which inhibition at 0.01 µM ([1]; 10 nM) does the source give for `C=CC(=O)Nc1cc(-c2cc(-c3cc4c([nH]3)CCNC4=O)ccn2)ccc1OC(F)(F)F` [compound 11] here?
**A.** The inhibition at 0.01 µM was -2%.

**Q.** What about the inhibition at 0.1 µM ([1]; 100 nM) of the same compound?
**A.** The inhibition at 0.1 µM was 8%.

**Q.** What about the inhibition at 1 µM ([1]; 1000 nM) of the same compound?
**A.** Its inhibition at 1 µM is 43%.

**Q.** What about the inhibition at 0.01 µM ([2]; 10 nM) of the same compound?
**A.** The inhibition at 0.01 µM was 1%.

**Q.** What about the inhibition at 0.1 µM ([2]; 100 nM) of the same compound?
**A.** Its inhibition at 0.1 µM is 10%.

**Q.** And the inhibition at 1 µM ([2]; 1000 nM)?
**A.** Its inhibition at 1 µM is 42%.

**Q.** What about the inhibition at 0.01 µM ([3]; 10 nM) of the same compound?
**A.** Its inhibition at 0.01 µM is -1%.

**Q.** And the inhibition at 0.1 µM ([3]; 100 nM)?
**A.** The inhibition at 0.1 µM was 3%.

**Q.** And the inhibition at 1 µM ([3]; 1000 nM)?
**A.** Its inhibition at 1 µM is 34%.

**Q.** What about the inhibition at 0.01 µM ([4]; 10 nM) of the same compound?
**A.** The inhibition at 0.01 µM was 6%.

**Q.** And the inhibition at 0.1 µM ([4]; 100 nM)?
**A.** Its inhibition at 0.1 µM is -2%.

**Q.** What about the inhibition at 1 µM ([4]; 1000 nM) of the same compound?
**A.** Its inhibition at 1 µM is -1%.

**Q.** What about the inhibition at 0.01 µM ([5]; 10 nM) of the same compound?
**A.** Its inhibition at 0.01 µM is 5%.

**Q.** And the inhibition at 0.1 µM ([5]; 100 nM)?
**A.** The inhibition at 0.1 µM was -15%.

**Q.** What about the inhibition at 1 µM ([5]; 1000 nM) of the same compound?
**A.** Its inhibition at 1 µM is -9%.

**Q.** What about the inhibition at 0.01 µM ([6]; 10 nM) of the same compound?
**A.** Its inhibition at 0.01 µM is -9%.

**Q.** And the inhibition at 0.1 µM ([6]; 100 nM)?
**A.** The inhibition at 0.1 µM was -5%.

**Q.** And the inhibition at 1 µM ([6]; 1000 nM)?
**A.** Its inhibition at 1 µM is 9%.

**Q.** And the inhibition at 0.01 µM ([7]; 10 nM)?
**A.** The inhibition at 0.01 µM was -24%.

**Q.** And the inhibition at 0.1 µM ([7]; 100 nM)?
**A.** Its inhibition at 0.1 µM is -17%.

**Q.** And the inhibition at 1 µM ([7]; 1000 nM)?
**A.** Its inhibition at 1 µM is -11%.

**Q.** What about the inhibition at 0.01 µM ([8]; 10 nM) of the same compound?
**A.** The inhibition at 0.01 µM was 26%.

**Q.** What about the inhibition at 0.1 µM ([8]; 100 nM) of the same compound?
**A.** Its inhibition at 0.1 µM is 16%.

**Q.** And the inhibition at 1 µM ([8]; 1000 nM)?
**A.** The inhibition at 1 µM was 6%.

**Q.** And the inhibition at 0.01 µM ([9]; 10 nM)?
**A.** The inhibition at 0.01 µM was -13%.

**Q.** What about the inhibition at 0.1 µM ([9]; 100 nM) of the same compound?
**A.** The inhibition at 0.1 µM was -9%.

**Q.** And the inhibition at 1 µM ([9]; 1000 nM)?
**A.** The inhibition at 1 µM was 3%.

**Q.** What about the inhibition at 0.01 µM ([10]; 10 nM) of the same compound?
**A.** The inhibition at 0.01 µM was 2%.

**Q.** What about the inhibition at 0.1 µM ([10]; 100 nM) of the same compound?
**A.** The inhibition at 0.1 µM was -4%.

**Q.** What about the inhibition at 1 µM ([10]; 1000 nM) of the same compound?
**A.** The inhibition at 1 µM was 5%.

**Q.** What about the inhibition at 0.01 µM ([11]; 10 nM) of the same compound?
**A.** Its inhibition at 0.01 µM is 3%.

**Q.** And the inhibition at 0.1 µM ([11]; 100 nM)?
**A.** Its inhibition at 0.1 µM is 12%.

**Q.** What about the inhibition at 1 µM ([11]; 1000 nM) of the same compound?
**A.** The inhibition at 1 µM was 11%.

**Q.** What about the inhibition at 0.01 µM ([12]; 10 nM) of the same compound?
**A.** The inhibition at 0.01 µM was -5%.

**Q.** And the inhibition at 0.1 µM ([12]; 100 nM)?
**A.** The inhibition at 0.1 µM was 2%.

**Q.** And the inhibition at 1 µM ([12]; 1000 nM)?
**A.** The inhibition at 1 µM was 10%.

From article PMC11233931, “Remodeling tumor‐associated macrophage for anti‐cancer effects by rational design of irreversible inhibition of mitogen‐activated protein kinase‐activated protein kinase 2” (MedComm, 2024)
